Measured values from US4535081A, “Antiallergic and antiulcer 1-oxo-1H-thiazolo[3,2-a]pyrimidine-2-carboxamides and intermediates therefor” (Pfizer Inc., priority 1983, dated 1985).
“And” between values parts separate entries of the source, which are not always exact repeats. Identical values can stand only once. “Also recorded” adds a separate entry of the source.

Assays:
[1] = test system: isolated guinea pig ileum (histamine); experiment: Isolated ileum spasm, histamine; conditions: 10^-8 to 10^-4 M
[2] = test system: cold-restraint stress gastric ulcer; experiment: Cold-restraint stressed rat ulcer assay; assay type: in vivo
Description: The effectiveness of the products of this invention as anticulcer agents is determined by the so-called cold-restraint stressed rat assay. In this test non-fasted female rats (Charles River C-D strain) weighing 70-140 gms. are administered the drug or carrier (control animals) intraperitoneally (in saline solution containing 1% carboxymethylcellulose and 0.1% Tween 80) or orally (in water) three hours before being lightly anesthetized with ether and taped in the supine position to individual sheets of plexiglass. After recovery from anesthesia, the restrained animals are positioned horizontally in a refrigerator maintained at 10°-12° C. and three hours later sacrificed by cervical dislocation. The abdomen of each rat is opened, the pylorus clamped, the stomach inflated with saline via an oral tube, the esophagus clamped and the stomach excised. The stomachs are placed in a 0.4% formaldehyde solution for approximately 30 seconds to harden the outer layers and facilitate examination. Each stomach is then cut open along the greater curvature and the glandular portion (hind stomach) examined for damage. The number of gastric erosions, their severity and the color of the stomachs is recorded. […]

[3] = test system: passive cutaneous anaphylaxis (PCA); experiment: Intravenous activity in PCA test; assay type: in vivo, rat
Description: In the PCA test, normal animals are injected intradermally (i.d.) with antibodies contained in serum obtained from actively sensitized animals. The animals are then challenged intravenously with antigen mixed with a dye such as Evans' Blue. The increased capillary permeability caused by the antigen-antibody reaction causes the dye to leak from the site of the antibody injection. The test animals are then asphyxiated and the intensity of the reaction determined by measuring the diameter and intensity of the blue coloration on the inner surface of the animals' skin.
The ability of agents to interfere with PCA reactions is measured in male Charles River Wistar rats, 170-210 g. Reaginic antiserum, rich in IgE antibodies, is prepared according to Petillo et al., Int. Arch. […] Hyperimmune antiserum rich in IgG antibodies to hen egg albumin is prepared according to Orange et al., J. Exptl. […] Forty-eight hours prior to antigen challenge, the reaginic antiserum is injected intradermally (i.d.) into the shaved skin of a normal rat's back; 5 hours before challenge the hyperimmune antisera is similarly injected. […] The difference is expressed as percent blockage due to the compound employed.

isolated rat monocytes = experiment: Synthesis and release of SRC in isolated monocytes stimulated by an ionophore; assay type: cell-based
[4] = test system: pentagastrin-stimulated acid output; experiment: Pentagastrin-stimulated acid output in Heidenhain pouch dogs; assay type: in vivo, dog; conditions: 5 mg/kg, i.v.
human lymphocytes = experiment: Chromosomal breakage in human lymphocytes in vitro; assay type: cell-based; conditions: 1000, 100, 10 or 0 μg/ml
ethanol-induced ulcer = experiment: Ethanol-induced rat ulcer assay; assay type: in vivo; conditions: oral, 5 mg./kg.; Table III; listed as Formula I: (CH2)4
Description: Alternatively, the effectiveness of the products of this invention as antiulcer agents is determined in an ethanol-induced rat ulcer assay. In this test, overnight fasted male rats are given drug (5 mg./kg.) or water orally fifteen minutes prior to an orally administered dose of absolute ethanol (1.0 ml.). One hour after the ethanol challenge the animals (8/group) are killed and the stomachs examined for the presence of lesions. All drugs were dissolved in dilute NaOH. After sacrifice the abdomen is opened and a locking hemostat placed at the pylorus. 6 ml. of a 4% solution of formaldehyde was injected into the stomach with a gastric feeding tube and a second locking hemostat was used to seal the esophagus. The stomach was removed, opened along the greater curvature and examined for ulceration.
The scoring system used to quantitate the ethanol-induced lesions is given below.
For each group of animals an ulcer index is calculated as follows:
Ulceration Index=(the sum of the scores of the group)×(the sum of the number of ulcers in the group)×(the fraction of the group having any incidence of ulceration).
The percentage inhibition of ulcers is calculated as follows:
% Inhibition=100×[(ulcer index controls)-(ulcer index drug-treated)].div.(ulcer index controls).

rats = experiment: Oral toleration, 10 days, rats; assay type: in vivo, rat; conditions: 10 days, 50, 150 and 300 mg/kg/day
Description: Rats were given III orally by gavage at doses of 50, 150 and 300 mg/kg/day for 10 days.

[5] = Oral absorption and plasma concentrations, dogs; assay type: in vivo, dog
Description: This is supported by the observations of plasma concentrations of 3 to 7 μg/ml one hour after oral administration of III, 50 to 300 mg/kg.

Stability = assay type: physicochemical; conditions: solid state, with standard diluents / inert ingredients, or in solution
[6] = test system: plasma histamine rise in rats passively sensitized with IgE-rich antiserum; experiment: Passive systemic anaphylaxis, plasma histamine rise; assay type: in vivo, rat
[7] = test system: urinary volume output and sodium and potassium excretion; experiment: Diuretic activity; assay type: in vivo; conditions: oral
Description: When given orally, it caused a dose-related increase in urinary volume output at doses in the range 0.3 to 5 mg/kg. […] These findings indicate that the dose-response range for diuretic activity is considerably higher than that for antiulcer effects and just below that for antiallergy effects (1 to 10 mg/kg).

O=C(Nc1nnn[nH]1)c1cnc2sc3c(n2c1=O)CCCC3 [Compound III, N-(5-Tetrazolyl)-1-oxo-1H-cyclohexenothiazolo[3,2-a]pyrimidine-2-carboxamide]
antagonism of spasm of isolated guinea pig ileum [1]: does not antagonize spasms
oral dose range of dose-related protection, cold-restraint stress ([2]; oral): 0.003 to 0.1 mg/kg
potency in cold-restraint stress gastric ulcer procedure ([2]; rat, in vivo): extremely potent; also recorded: highly potent
intravenous activity range in the PCA test [3]: 0.03 to 1.0 mg/kg
potency relative to Intal in the PCA test ([3]; vs Intal): ~26 times
synthesis and release of SRC (isolated rat monocytes): is not inhibited
pentagastrin-stimulated acid output [4]: does not affect pentagastrin-stimulated acid output
drug-induced chromosomal breakage, human lymphocytes (human lymphocytes): failed to reveal any significant drug-induced chromosomal breakage
% Inhibition in the Ethanol-Induced Rat Ulcer Assay, amides (ethanol-induced ulcer): 97% and 81%
pathological changes, gross and microscopic (liver, kidney, heart, lung) (rats; oral gavage): no resultant pathological changes
clinical chemistry apart from serum glutamic-pyruvic transaminase (rats; oral): no changes in clinical chemistry were observed
plasma concentration ([5]; one hour after oral 50 to 300 mg/kg, 60 min): 9000 to 26000 ng/mL
oral absorption ([5]; suspensions or capsules): absorbed readily after oral administration
stability (Stability): highly stable in a pure solid state, as well as in the presence of standard pharmaceutical diluents and in solution; also recorded: exceptionally good stability
potency relative to Intal, passive systemic anaphylaxis ([6]; i.v., vs Intal): 13 times
passive systemic anaphylaxis ([6]; rat, in vivo): prevented
dose range of dose-related increase in urinary volume output [7]: 0.3 to 5 mg/kg
maximum increase in urinary volume output ([7]; 0.3 to 5 mg/kg): twofold increase in volume output
sodium and potassium excretion ([7]; 0.3 to 5 mg/kg): an increase in sodium and potassium excretion was observed
urinary concentrations of sodium and potassium ions ([7]; 0.3 to 5 mg/kg): unchanged
